Data as given in patent publication US12172007B2, “Combination therapy of electric fields and an additional treatment for cancer and imaging” (University of Cincinnati, priority 2019, dated 2024).

Tests used:
[1] = Relaxivity of contrast agent at 7 T; type: physicochemical
Excerpt: The use of a paramagnetic gadolinium chelate-loaded SapC-DOPS (Gd-DTPA-BSA/SapC-DOPS) vesicles as a targeted contrast agent for imaging glioblastoma multiforme tumors are also useful in the present invention. Gd-DTPA-BSA/SapC-DOPS vesicles and Gd-DTPA display a similar relaxivity of 3.32 and 2.80 (s·mM)−1, respectively, at 7 T. According to the in vivo experiments, the R1 values of the tumor before injection of Gd-DTPA-BSA/SapC-DOPS vesicles, sham injected brain, and contralateral normal brain were 0.4676±0.010 s−1, 0.5216±0.034 s−1, and 0.5596±0.003 s−1, respectively. […] At 24 h postinjection, the tumor R1 remained elevated (7.9±1.5%, P<0.05) compared with the normal and sham brains, but it was statistically similar to the controls (4.7±2.0%, p>0.05). […] At 4 h, 10 h, and 20 h, the increase in T1 relaxation time is higher in the sham normal brain compared with sham tumor. By 24 h postinjection, the T1-weighted signal is similar in both tissues.

[2] = system: non-small cell lung cancer (NSCLC); conditions: cited from earlier work
[3] = system: HER2-negative breast cancer; conditions: phase I, cited from earlier work

Compound	relaxivity [1] [s/mM]	overall survival, Bavituximab + docetaxel versus docetaxel alone ([2]; advanced, previously treated NSCLC, phase III)	overall survival versus placebo-treated patients ([2]; patients pre-treated with immune checkpoint inhibitors)	overall response rate ([3]; with paclitaxel as adjuvant therapy) [%]	tolerability ([3]; with paclitaxel)
O=C([O-])CN(CCN(CC(=O)[O-])CC(=O)O)CCN(CC(=O)[O-])CC(=O)O.[Gd+3] [Gd-DTPA]	2.80	–	–	–	–
Bavituximab: chimeric monoclonal antibody that binds to PS	–	no significant difference	increased overall survival	85	well tolerated
